# Test results published in publication PMC9332833 (Cancers, 2022).
# Legend:
# [1] = test system: K562 cells; experiment: Annexin V-FITC/PI apoptosis measurement, K562; assay type: cell-based, human; conditions: 5 µM, 24 h
# Procedure: Cells were seeded in 6-well plates (K562 or K562-MDR1) or in 24-well plates (CD34^+ cells). After 24 h, BK124.1 or DMSO was added. After a further 24 h, cells were stained using the Annexin V-FITC kit for the detection of apoptosis (BD, Franklin Lakes, NJ, USA) and immediately analyzed on a BD FACSCalibur using CellQuest software (BD, Franklin Lakes, NJ, USA). […]
# incubated overnight at 37 °C and analyzed using an iMark Microp late absorbance reader (Bio-Rad, Hercules, CA, USA). Results were calculated relative to control cells treated with DMSO only.
# […] CD34+ cells were plated at a concentration of 2.5 × 10^5 cells/mL in a 24-well plate. […] A f t e r a further 24 hours, cells were harvested and stained according to the manufacturer's protocol using the Annexin V-FITC kit for the detection of apoptosis (BD, Franklin Lakes, NJ, USA). Stained cells were immediately analyzed on a BD FACSCalibur using CellQuest softwa re (BD, Franklin Lakes, NJ, USA).
# Cells were seeded at a concentration of 1-2 × 10^5 cells/mL in a 6-well plate. After 24 hours of pre-incubation, BK124.1 in DMSO was added to the cells (vDMSO/vmedium), and incubated for 24 or 48 hours.
# After incubation, cells were washed twice with ice-cold PBS (Mg2+ and Ca2+-free), resuspended in ice-cold 70% ethanol, and placed at -20 °C for 24 hours. […]
# Flow cytometry analysis of CD243 (P-glycoprotein) […]
# [2] = test system: CD34+/CD38+ cells from CML patients; experiment: Annexin V-FITC/PI apoptosis in CD34+/CD38+ subpopulation; assay type: cell-based, human; conditions: 2.5 or 5 µM, 24 h
# Procedure: Pre-cultured cells were treated with BK124.1 or DMSO for 24 h. For purity analysis, cells were stained with anti-human CD34-APC antibody, anti-human CD38-PE (Biolegend, San Diego, CA, USA), and propidium iodide according to the manufacturers’ protocols. For apoptosis analysis, cells were additionally stained with Annexin V-FITC kit (BD, Franklin Lakes, NJ, USA) according to the manufacturer’s protocol. Appropriate isotype controls were included. Stained cells were immediately analyzed on a BD LSRFortessa flow cytometer with FlowJo software (BD, Franklin Lakes, NJ, USA), after exclusion of doublets. Purity was analyzed on live cells only, and apoptosis separately for each population of cells (CD34^+/CD38^+ or CD34^+/CD38^−).
# […] Next, we isolated CD34+ cells (EasySep™ Human CD34 Positive Selection Kit II, StemCell Technologies, Vancouver, Canada), counted them and assessed viability with Muse Cell Analyzer (Merck Millipore, Burlington, MA, USA). […] The purity of the live CD34+ fraction was assessed by flow cytometry with anti-human CD34-APC antibody, compared with an appropriate isotype control (Biolegend, San Diego, CA, USA), and propidium iodide (Sigma-Aldrich, St. Louis, MO, USA). […]
# […] In both cases stained cells were immediately analyzed on a BD LSRFortessa flow cytometer and analyzed with FlowJo software (BD, Franklin Lakes, NJ, USA). […]
structure (smiles),measurement,setting,value
"CCC12C(=O)C(CC)(C(c3ccccc3)=C1c1ccccc1)C1C(=O)N(CC(O)CNC(C)C)C(=O)C12 (centres unmarked) [BK124.1, 4-[2-hydroxy-3-(propan-2-ylamino)propyl]-1,7-diethyl-8,9-diphenyl-4-azatricyclo [5.2.1.02,6]dec-8-ene-3,5,10-trione]",Apoptosis,[1],61.2%
same,Apoptosis in CD34+/CD38+ cells compared with CD34+/CD38- cells,[2],even higher apoptosis
